Experimental data taken from patent publication US20200237742A1, “Serdexmethylphenidate Conjugates, Compositions And Methods Of Use Thereof” (priority 2018, published 2020).

System: healthy, nondependent, recreational stimulant users with intranasal insufflation experience
Test: Intranasal study, treatment-emergent adverse events (Table 54)
Description: The study consisted of a Screening Period, an in-clinic Drug Discrimination Phase, a Treatment Phase, and a Follow-Up Visit.
All subjects were required to fast for at least 8 hours prior to each dose of study drug until approximately 4 hours after each dose. Abuse potential measures and pharmacokinetic samples were collected at different times after the administration of study drug. Subjects who successfully completed the Drug Discrimination Phase and who qualified for the Treatment Phase remained as inpatients to enter the Treatment Phase.

[1] = intranasal, d-MPH HCl 40 mg, SDX Cl 80 mg, N = 46 each

COC(=O)[C@H](c1ccccc1)[C@H]1CCCCN1C(=O)OC[n+]1cccc(C(=O)N[C@@H](CO)C(=O)O)c1.[Cl-] [serdexmethylphenidate chloride]
3 (6.5%) n (%): Cough, subjects with event [1] | Epistaxis (nosebleed), subjects with event [1] | Throat irritation, subjects with event [1]
0 n (%): Back pain, subjects with event [1] | Blood pressure diastolic increased, subjects with event [1] | Bruxism, subjects with event [1] | Change in sustained attention, subjects with event [1] | Chest discomfort, subjects with event [1] | Decreased appetite, subjects with event [1] | Defaecation urgency, subjects with event [1] | Dry mouth, subjects with event [1] | Dry throat, subjects with event [1] | Dysmenorrhoea (menstrual cramps), subjects with event [1] | Dyspepsia, subjects with event [1] | Energy increased, subjects with event [1] | Eye irritation, subjects with event [1] | Feeling hot, subjects with event [1] | Flushing, subjects with event [1] | Haematoma, subjects with event [1] | Hypopnoea (shallow breathing), subjects with event [1] | Infections and infestations, subjects with event [1] | Investigations, subjects with event [1] | Metabolism and nutrition disorders, subjects with event [1] | Muscle tightness, subjects with event [1] | Muscle twitching, subjects with event [1] | Neck pain, subjects with event [1] | Obsessive-compulsive disorder, subjects with event [1] | Peripheral swelling, subjects with event [1] | Pharyngeal hypoaesthesia (numbness of throat), subjects with event [1] | Pharyngitis, subjects with event [1] | Phlebitis superficial, subjects with event [1] | Phonophobia (fear of loud noises), subjects with event [1] | Photophobia, subjects with event [1] | Pyrexia, subjects with event [1] | Reproductive system and breast disorders, subjects with event [1] | Restlessness, subjects with event [1] | Sinus tachycardia, subjects with event [1] | Tachycardia, subjects with event [1] | Testis discomfort, subjects with event [1] | Vascular disorders, subjects with event [1] | Ventricular extrasystoles, subjects with event [1] | Vessel puncture site bruise, subjects with event [1] | Vessel puncture site pain, subjects with event [1] | Visual impairment, subjects with event [1] | Vomiting, subjects with event [1]
9 (19.6%) n (%): Euphoric mood, subjects with event [1]
7 E: General disorders and administration site conditions, number of occurrences [1]
5 (10.9%) n (%): Headache, subjects with event [1]
8 (17.4%) n (%): Eye disorders, subjects with event [1] | Lacrimation increased, subjects with event [1]
4 (8.7%) n (%): Gastrointestinal disorders, subjects with event [1] | Rhinorrhoea (runny nose), subjects with event [1] | Skin and subcutaneous tissue disorders, subjects with event [1]
10 E: Nasal congestion, number of occurrences [1]
12 E: Nervous system disorders, number of occurrences [1]
2 E: Abdominal pain, number of occurrences [1] | Cardiac disorders, number of occurrences [1] | Dysgeusia, number of occurrences [1] | Feeling of relaxation, number of occurrences [1] | Hyperhidrosis, number of occurrences [1] | Nausea, number of occurrences [1] | Palpitations, number of occurrences [1] | Upper-airway cough syndrome, number of occurrences [1]
4 E: Rhinorrhoea (runny nose), number of occurrences [1] | Skin and subcutaneous tissue disorders, number of occurrences [1] | Throat irritation, number of occurrences [1]
14 E: Nasal discomfort, number of occurrences [1]
1 (2.2%) n (%): Abdominal distension, subjects with event [1] | Agitation, subjects with event [1] | Anxiety, subjects with event [1] | Arthralgia, subjects with event [1] | Asthenia, subjects with event [1] | Catheter site haematoma, subjects with event [1] | Catheter site swelling, subjects with event [1] | Chest pain, subjects with event [1] | Claustrophobia, subjects with event [1] | Diarrhoea, subjects with event [1] | Disturbance in attention, subjects with event [1] | Dizziness, subjects with event [1] | Ecchymosis (skin discoloration), subjects with event [1] | Eye pain, subjects with event [1] | Fatigue, subjects with event [1] | Head discomfort, subjects with event [1] | Irritability, subjects with event [1] | Musculoskeletal and connective tissue disorders, subjects with event [1] | Nasal dryness, subjects with event [1] | Skin erosion, subjects with event [1] | Sneezing, subjects with event [1] | Somnolence, subjects with event [1]
102 E: Any TEAE, number of occurrences [1]
11 (23.9%) n (%): Nervous system disorders, subjects with event [1]
occurred more often: respiratory, thoracic, and eye disorders (nasal discomfort, nasal congestion, rhinorrhoea, epistaxis, increased lacrimation) (intranasal SDX Cl compared to intranasal d-MPH HCl)
36 (78.3%) n (%): Any TEAE, subjects with event [1]
42 E: Respiratory, thoracic and mediastinal disorders, number of occurrences [1]
13 (28.3%) n (%): Nasal discomfort, subjects with event [1] | Psychiatric disorders, subjects with event [1]
25 (54.3%) n (%): Respiratory, thoracic and mediastinal disorders, subjects with event [1]
6 (13.0%) n (%): General disorders and administration site conditions, subjects with event [1] | Hypervigilance, subjects with event [1]
6 E: Gastrointestinal disorders, number of occurrences [1] | Headache, number of occurrences [1] | Hypervigilance, number of occurrences [1]
2 (4.3%) n (%): Abdominal pain, subjects with event [1] | Cardiac disorders, subjects with event [1] | Dysgeusia, subjects with event [1] | Feeling of relaxation, subjects with event [1] | Hyperhidrosis, subjects with event [1] | Nausea, subjects with event [1] | Palpitations, subjects with event [1] | Upper-airway cough syndrome, subjects with event [1]
19 E: Psychiatric disorders, number of occurrences [1]
1 E: Abdominal distension, number of occurrences [1] | Agitation, number of occurrences [1] | Anxiety, number of occurrences [1] | Arthralgia, number of occurrences [1] | Asthenia, number of occurrences [1] | Catheter site haematoma, number of occurrences [1] | Catheter site swelling, number of occurrences [1] | Chest pain, number of occurrences [1] | Claustrophobia, number of occurrences [1] | Diarrhoea, number of occurrences [1] | Disturbance in attention, number of occurrences [1] | Dizziness, number of occurrences [1] | Ecchymosis (skin discoloration), number of occurrences [1] | Eye pain, number of occurrences [1] | Fatigue, number of occurrences [1] | Head discomfort, number of occurrences [1] | Irritability, number of occurrences [1] | Musculoskeletal and connective tissue disorders, number of occurrences [1] | Nasal dryness, number of occurrences [1] | Skin erosion, number of occurrences [1] | Sneezing, number of occurrences [1] | Somnolence, number of occurrences [1]
8 E: Lacrimation increased, number of occurrences [1]
10 (21.7%) n (%): Nasal congestion, subjects with event [1]
3 E: Cough, number of occurrences [1] | Epistaxis (nosebleed), number of occurrences [1]
9 E: Euphoric mood, number of occurrences [1] | Eye disorders, number of occurrences [1]
